# In publication PMC10852989, “Combining cisplatin and a STING agonist into one molecule for metalloimmunotherapy of cancer” (National Science Review, 2024):
# Key:
# [1] = octanol-water partition coefficient, shake-flask, ICP-MS; assay type: physicochemical; conditions: n-octanol / phosphate buffer 10 mM pH 7.4, room temperature
# Method: Lipid-water partition coefficient. The shake-flask method was used to measure the partition coefficients of CDDP, I and II. Briefly, a mixture containing equal volumes of n-octanol and phosphate buffer (10 mM, pH 7.4) was shaken on a mechanical shaker at room temperature for 24 h. Complexes (10 mM) in phosphate buffer (presaturated with n-octanol) were mixed with an equal volume of n-octanol (presaturated with phosphate buffer), and the mixture was shaken for 24 h at room temperature. Centrifugation was carried out at 2500 rpm for 30 min to separate the two phases. The aqueous layer was carefully separated, and the Pt content in the initial and final aqueous phases was analyzed by inductively coupled plasma mass spectrometry (ICP-MS). The log PO/W was measured using the following equation: log PO/W = log [(Ptinitial ‒ Ptfinal)/Ptfinal].
# HK-2 cells = assay: 72 h MTT cytotoxicity, HK-2; assay type: cell-based; conditions: human normal kidney cell line
# Method: (§1) Cytotoxicity. Tumor cells were cultured overnight after inoculation in RPMI-1640 medium or DMEM supplemented with 10% FBS. All cultures were maintained in an incubator in a highly humidified atmosphere of 95% air with 5% CO2 at 37 °C. Growth inhibition was measured with an MTT assay. Briefly, 2800–7000 cells per well in culture medium (100 μL) were plated in 96-well plates (Corning). The cells were treated in triplicate with different concentrations of complexes at 37 ℃ for 72 h. Stock solutions of CDDP and oxoplatin were prepared in PBS, while stock solutions of conjugates I and II and the ligand MSA-2 were prepared in DMSO. The stock solutions were diluted in complete medium (DMSO < 0.5%). An aliquot of MTT solution (40 μL, 2.5 mg·mL^–1) in PBS buffer was added to each well and incubated for 4 h. The supernatant was removed and DMSO (150 μL) was added to solubilize the formazan crystals. The amount of formazan was determined using a microplate reader at 570 nm after the plates were shaken for 30 min. The optical density (OD) was used to calculate the percentage of viable cells relative to untreated control values. Background readings for MTT incubated in cell-free medium were subtracted from each value before calculation. […] The mean IC50 values were calculated using data from three replicates.
# PANC-1 cells [2] = assay: 72 h MTT cytotoxicity, PANC-1; assay type: cell-based, human
# Method: as §1
# Pan02 cells = assay: 72 h MTT cytotoxicity, Pan02; assay type: cell-based, mouse
# Method: as §1
# MCF-7 cells = assay: 72 h MTT cytotoxicity, MCF-7; assay type: cell-based, human
# Method: as §1
# [3] = tested on: cancer cell lines (MCF-7, Caov3, PANC-1, BxPC3, Pan02); assay: 72 h MTT cytotoxicity, panel of cancer cell lines; assay type: cell-based
# Method: as §1
# PANC-1 cells [4] = assay: cellular uptake of Pt by ICP-MS, PANC-1; assay type: cell-based, human
# Method: Cellular uptake. All incubations were carried out in the dark. After the designated incubation period, the medium was removed, and the cells were harvested with trypsin and rinsed twice with PBS (1×, 20 mM, pH 7.4), followed by digestion and ICP-MS.
# Cancer cells were seeded in a 6-well plate at a density of 5×10^5 cells per well. After incubation for 24 h, the cells were treated with each complex for 6 h.
# Cancer cells preincubated with metabolic inhibitor (MIs) were also evaluated. These cells were preincubated with 2-deoxy-D-glucose and oligomycin (50 mM and 5 μM, respectively, 1 h) or NH4Cl (50 mM, 1 h) at 37 ℃ followed by incubation with DMEM containing CDDP, I or II at 37 ℃ for 6 h.
# Digestion. Cell pellets were collected by centrifugation and then digested with nitric acid (100 µL) for 2 h at 95 °C, followed by the addition of H2O2 (50 µL) at 95 °C for 0.5 h. HCl (100 µL) was added and kept at 95 °C until the total volume was less than 20 μL. Water was then added to dilute the solution to 1 mL, and the final Pt content was determined by ICP-MS.
# [5] = tested on: nuclear DNA of PANC-1 cells; assay: platination of cellular DNA by ICP-MS; assay type: cell-based, human; conditions: 6 h
# Method: DNA platination. Cancer cells were seeded in 6-well plates at a density of 5×10^5 cells per well. After incubation at 37 °C for 24 h, the cells were treated with each complex for 6 h. The attached cells were harvested with trypsin and washed twice with PBS (4 °C). The cell pellets were lysed with the TIANamp Genomic DNA Kit. The DNA concentration was determined using NanoDrop spectrophotometer, and then the isolated DNA was digested with the same method mentioned above. The final Pt content was determined by ICP-MS.
# [6] = tested on: Pan02 tumor tissue immune cells; assay: flow cytometric analysis of immune cells in Pan02 tumor tissue; assay type: in vivo, mouse; conditions: Pan02 tumors; comparable to CDDP and CDDP + MSA-2 groups
# Method: Flow cytometric analysis. To analyze the levels of immune cells in the tumor microenvironment, mice were sacrificed six days after the final treatment. The obtained tumors were cut into pieces and digested in T cell medium. Single-cell suspensions were obtained after filtration through nylon mesh and incubated with various antibodies. FACS tests were carried out on a flow cytometer, and the results were analyzed with NovaExpress. The following monoclonal antibodies (mAbs) were used for flow cytometry: anti-CD3-APC (17A2), anti-CD4-AF700 (RM4-5), anti-CD8-PE (53-6.7), anti-NK1.1-PE/Cy7 (PK136), anti-PD-1-FITC (29F. 1A12), anti-CD69-PE/Cy5 (H1.2F3).
# Pan02 tumors = assay: scRNA-seq of Pan02 tumors; assay type: in vivo, mouse; conditions: scRNA-seq at treatment endpoint, versus untreated
# From the text: ScRNA-seq. Tumors were excised from individual mice after treatment using a dissecting microscope and pooled. The tumors were cryopreserved in FBS + 10% DMSO. Samples were subsequently thawed, washed, sorted to isolate living cells and then performed on the 10X Genomics 5’ Chromium v2.0 platform according to the manufacturer’s instructions. Libraries were generated per the manufacturer’s protocol and sequenced on an Illumina HiSeq 2500 with the “rapid run” mode according to the standard 10X Genomics protocol. Data analysis was conducted by Singleron Biotech. Co. Ltd. using Cellranger and R.
# Cell type annotation. The cell type identity of each cluster was determined from the expression of canonical markers found in the DEGs using SynEcoSys database. Heatmaps displaying the expression of markers used to identify each cell type were generated by Seurat v3.12 DoHeatmap.
smiles,measurement,setting,value
COc1cc2cc(C(=O)CCC(=O)[O][Pt]([NH2])([NH2])([OH])([Cl])[Cl])sc2cc1OC [conjugate I],octanol-water partition coefficient (logPo/w),[1],0.9
same,IC50,HK-2 cells,120 ± 10 nM
same,IC50,PANC-1 cells [2],60 ± 20 nM
same,IC50,Pan02 cells,50 ± 10 nM
same,IC50,MCF-7 cells,300 ± 100 nM
same,IC50 in these cancer cell lines,[3],submicromolar
same,cellular Pt levels after preincubation with metabolic inhibitors (MIs),"PANC-1 cells [4]; PANC-1, 5 μM, 6 h, 50 mM 2-deoxy-D-glucose and 5 μM oligomycin, versus no MI pretreatment",significantly decreased
same,intracellular Pt levels after pretreatment with endocytosis inhibitor NH4Cl,"PANC-1 cells [4]; PANC-1, 5 μM, 6 h, 50 mM NH4Cl",did not significantly change
same,fold increase of cellular Pt compared with CDDP,"PANC-1 cells [4]; PANC-1 cells, 6 h",92 fold
same,fold increase of cellular Pt compared with conjugate II,"PANC-1 cells [4]; PANC-1 cells, 6 h",68 fold
same,cellular Pt content,"PANC-1 cells [4]; PANC-1 cells, 6 h incubation, ICP-MS",155.7 ng Pt/mg protein
same,platination of cellular DNA,[5],stronger than that by CDDP or conjugate II
same,infiltration of CD8+ and CD4+ T cells,[6],slightly increased
same,"frequencies of CD8 effector T, CD4 T and NK cells",Pan02 tumors,increased
same,percentage of tumor cells,Pan02 tumors,decreased
